# Key:
# [1] = test system: GCN2, PKR, eIF2α, ATF4, CHOP in HT29 cells; experiment: Western blot, ISR kinases / eIF2α / ATF4 / CHOP; format: cell-based, human; conditions: pre-treatment 2 hours, then ONC201 or PG3 for 24 hour
# Protocol: Figure 7 PG3 induces upregulation of ATF4 through ISR via HRI. (A) HT29 cells were treated with PG3, GSK2606414, TG and ONC201 respectively, or co-treatment with PG3/GSK2606414, PG3/TG, and PG3/ONC201 for 15 h. (B) MEF, MEF^PERK−/− and MEF^GCN2−/− cells were treated with PG3 and ONC201 for 16 hours. (C) HT29 cells were transfected with siControl, siPKR, siHRI and siPKR/siHRI for 24 hours and then treated with PG3 for 16 hours. (D) HCT116 p53^−/− cells were transfected with siControl and siHRI for 24 hours and then treated with PG3 for 16 hours. (E) HCT116 p53^−/− cells were treated with PG3 and ONC201 for indicated times. (F) PANC1-sgCtrl, -sgHRI and -sgPKR cell lines were treated with PG3 and imipridones (ONC201, ONC206 and ONC212) for 16 hours. Western blot was performed using indicated antibodies. (G) Proposed model of PG3-induced cell apoptosis through HRI/ATF4/PUMA axis. Abbreviation: L.E.: Long exposure.
# (§1) After treatment, protein lysates were collected for Western blot analysis. A total of 15 μg of protein was used for SDS-PAGE. After primary and secondary antibody incubations, the signal was detected by a chemiluminescence detection kit, imaged by Syngene (Imgen Technologies). Antibodies for NAG-1 (GDF15) and P53 were from Santa Cruz Biotechnology; for caspase 8, cleaved caspase 8, caspase 9, caspase 3, cleavage PARP, eIF2α, p-eIF2α (Ser51), CHOP, ATF4, DR5, and PUMA were from Cell Signaling Technology. Noxa and p21 were from Calbiochem. Ran was from BD Biosciences.
# Supplementary Figure 2: ROS and NO are not responsible for PG3-induced HRI activation. (A, B) cells were pre-treated
# with ZnPP, L-NMMA, SA and NAC for 2 hours respectively, and then ONC201 or PG3 was added to the medium for 24 hour treatment.
# Western blot was performed using indicated antibodies.
# (1 picture or pasted object on this page, not shown here)
# [2] = test system: HT29 (R273H); experiment: Cell viability assay (CellTiterGlo), HT29; format: cell-based, human; conditions: Homo sapiens, HT-29; 72 h, CellTiterGlo
# Protocol: (§2) Figure 1 PG3 inhibits cell proliferation and growth in a p53-indepent manner. (A–E) Cell viability assay, dose response curves and IC50 value measurements in a panel of cancer cell lines and normal cells. Cells were treated with different concentrations of PG3, PG3-Oc (Oc), obatoclax (Ob), prodigiosin (P) or DMSO for 72 h. Luciferase activity was imaged by the IVIS Imaging System after treatment. Cell viability data were normalized to those of DMSO treatment control in each cell line and data analyses were performed using PRISM4 software. IC50 data are expressed as the mean ±SD (normal; n = 3).
# as §2, with “2 p53-dependent inhibition of” for “1 PG3 inhibits”, “is only observed at specific concentrations. (A–J)” for “and growth in a p53-indepent manner. (A–E)”, “ZMC1, CP-313908, APR-246, Ellipticine, Nutalin-3a” for “PG3, PG3-Oc (Oc), obatoclax (Ob), prodigiosin (P)”
# (§3) Cells were seeded in 96-well plates (6 × 10^3 cells/well). Cells were treated with different concentrations of compounds or dimethyl sulfoxide (DMSO) as a control for 72 hours. The cell viability was assessed by CellTiterGlo bioluminescent cell viability assay (Promega), following the manufacturer’s protocol. Bioluminescence imaging was measured using the IVIS imager. The percentage of cell viability (mean ± SEM) at each dose was calculated against the respective DMSO control. The IC50 values were determined from the sigmoidal dose-response curves using GraphPad Prism.
# [3] = test system: TOV-112D (R175H); experiment: Cell viability assay (CellTiterGlo), TOV-112D; format: cell-based, human; conditions: Homo sapiens, TOV112D; 72 h, CellTiterGlo; read-out: IC50 values, TOV-1120 (R175H) (converted)
# Protocol: as §2
# as §2, with “2 p53-dependent inhibition of” for “1 PG3 inhibits”, “is only observed at specific concentrations. (A–J)” for “and growth in a p53-indepent manner. (A–E)”, “ZMC1, CP-313908, APR-246, Ellipticine, Nutalin-3a” for “PG3, PG3-Oc (Oc), obatoclax (Ob), prodigiosin (P)”
# as §3
# [4] = test system: HCT116 (P53−/−); experiment: Cell viability assay (CellTiterGlo), HCT116 p53-/-; format: cell-based, human; conditions: Homo sapiens, HCT-116; 72 h, CellTiterGlo
# Protocol: as §2
# as §2, with “2 p53-dependent inhibition of” for “1 PG3 inhibits”, “is only observed at specific concentrations. (A–J)” for “and growth in a p53-indepent manner. (A–E)”, “ZMC1, CP-313908, APR-246, Ellipticine, Nutalin-3a” for “PG3, PG3-Oc (Oc), obatoclax (Ob), prodigiosin (P)”
# as §3
# [5] = test system: HCT116 (WT); experiment: Cell viability assay (CellTiterGlo), HCT116 WT; format: cell-based, human
# Protocol: as §2
# as §2, with “2 p53-dependent inhibition of” for “1 PG3 inhibits”, “is only observed at specific concentrations. (A–J)” for “and growth in a p53-indepent manner. (A–E)”, “ZMC1, CP-313908, APR-246, Ellipticine, Nutalin-3a” for “PG3, PG3-Oc (Oc), obatoclax (Ob), prodigiosin (P)”
# as §3
# [6] = test system: HCT116 (R175H); experiment: Cell viability assay (CellTiterGlo), HCT116 R175H; format: cell-based, human; conditions: Homo sapiens, HCT-116; 72 h, CellTiterGlo
# Protocol: as §2
# as §2, with “2 p53-dependent inhibition of” for “1 PG3 inhibits”, “is only observed at specific concentrations. (A–J)” for “and growth in a p53-indepent manner. (A–E)”, “ZMC1, CP-313908, APR-246, Ellipticine, Nutalin-3a” for “PG3, PG3-Oc (Oc), obatoclax (Ob), prodigiosin (P)”
# as §3
# [7] = test system: HFF-1 (human foreskin fibroblast cell with wild-type p53); experiment: Cell viability assay (CellTiterGlo), HFF-1 normal cells; format: cell-based; conditions: Homo sapiens, HFF-1; 72 h, CellTiterGlo, normal cells; read-out: IC50 values, HFF-l (WT)
# Protocol: as §2
# as §2, with “2 p53-dependent inhibition of” for “1 PG3 inhibits”, “is only observed at specific concentrations. (A–J)” for “and growth in a p53-indepent manner. (A–E)”, “ZMC1, CP-313908, APR-246, Ellipticine, Nutalin-3a” for “PG3, PG3-Oc (Oc), obatoclax (Ob), prodigiosin (P)”
# as §3
# [8] = test system: HT29, TOV-112D, isogenic HCT116 cell lines, HFF-1 and MRC5; experiment: Cell viability assay, panel of cancer cell lines and normal cells (results in words); format: cell-based, human
# Protocol: as §2, with “2 p53-dependent inhibition of” for “1 PG3 inhibits”, “is only observed at specific concentrations. (A–J)” for “and growth in a p53-indepent manner. (A–E)”, “ZMC1, CP-313908, APR-246, Ellipticine, Nutalin-3a” for “PG3, PG3-Oc (Oc), obatoclax (Ob), prodigiosin (P)”
# as §3
# [9] = test system: SW480 cells carrying a p53-responsive luciferase reporter; experiment: p53-responsive reporter assay; format: cell-based, human; conditions: 10 μM, 6 hour and 15 hour time points
# Protocol: SW480 cells carrying a p53-responsive luciferase reporter were used for assay of functional restoration of mutant p53. Cells were seeded in 96-well plates (5 × 10^4 cells/well) and were treated with compounds indicated for 6 and 15 h, respectively. Then, D-luciferin was added to each well with final concentration 100 μg/mL, and cells were imaged by using an IVIS Imaging System to detect luciferase activity.
# p53-mutant SW480 human colon cancer cells, stably expressing a p53-responsive luciferase reporter, were used to assay functional restoration p53 pathway-dependent transcription in mutant p53-expressing tumor cells. Cells were seeded in 96-well plates (5 × 10^4 cells/well) and were treated with small-molecule compounds for 6 and 15 h, respectively. Then, D-luciferin was added to each well at a final concentration of 100 μg/mL, and cells were imaged by using an IVIS Imaging System (Xenogen) to detect luciferase activity.
# [10] = test system: ATF4; experiment: Western blot, ATF4 induction; format: cell-based, human; conditions: five cancer cell lines, 24 h
# Protocol: (§4) Figure 4 Activation of ATF4 and up-regulation of typical p53 target genes. (A–E) Western blot analysis of p53 protein levels and upregulation of ATF4, PUMA, DR5 and p21. Cells were treated for 24 h with indicated compounds, concentrations and cell lines. Abbreviations: S.E.: Short exposure; L.E.: Long exposure.
# as §1
# [11] = test system: p53 protein; experiment: Western blot, p53 protein levels; format: cell-based, human; conditions: for wild-type p53 protein level: HCT116, 24 h; for endogenous mutant p53 R273H protein level: HT29, 24 h; for endogenous mutant p53 R175H protein level: TOV-112D; for endogenous mutant p53 R175H protein level / exogenous mutant p53 R175H protein level: 24 h; for exogenous mutant p53 R175H protein level: engineered HCT116-R175H cells
# Protocol: Cells were treated for 24 h with indicated compounds, concentrations and cell lines. Abbreviations: S.E.: Short exposure; L.E.: Long exposure.
# as §1
# [12] = test system: DR5; experiment: Western blot, DR5 induction; format: cell-based, human
# Protocol: as §4, §1
# [13] = test system: PUMA; experiment: Western blot, PUMA induction; format: cell-based, human
# Protocol: as §4, §1
# [14] = test system: p21; experiment: Western blot, p21 induction; format: cell-based, human
# Protocol: as §4, §1
structure (smiles),measurement,setting,value
"[H]/N=C(/NC)NCCC[C@H](N)C(=O)O [L-NMMA, N-Methyl-L-arginine acetate]",effect on PG3- or ONC201-induced upregulation of ATF4,[1],do not attenuate or block
Cc1c2ccncc2c(C)c2c1[nH]c1ccccc12 [Ellipticine],IC50,[2],713 nM
same,IC50,[3],19300 nM
same,IC50,[4],2420 nM
same,IC50,"[5]; Homo sapiens, HCT-116, 72 h, CellTiterGlo",999 nM
same,selective toxicity among isogenic HCT116 cell lines,"[5]; isogenic HCT116 cell lines, 1.11 μM",selective toxicity towards the p53-wild-type cell line
same,IC50,[6],1790 nM
same,IC50,[7],6070 nM
same,toxicity to normal cells,"[8]; HFF-1 and MRC5, 0.04 to 3.33 μM",no significant toxicity
same,inhibition of proliferation,"[8]; HT29 and TOV-112D, 0.04 to 3.33 μM",selectively inhibits the proliferation
same,p53-responsive reporter activity,[9],activates the reporter activity
same,upregulation of ATF4,[10],do not upregulate ATF4
same,wild-type p53 protein level,[11],potently stabilizes
same,endogenous mutant p53 R273H protein level,[11],stabilized
same,endogenous mutant p53 R175H protein level,[11],mildly downregulates
same,exogenous mutant p53 R175H protein level,[11],upregulates
same,upregulation of DR5,"[12]; HCT116 (p53 wild-type), 24 h",slightly upregulates the short isomer of DR5
same,upregulation of DR5,"[12]; HT29, 24 h",slightly upregulates the short isomer of DR5
same,upregulation of PUMA,"[13]; HCT116 (p53 wild-type), 24 h",mildly upregulates PUMA
same,upregulation of PUMA,"[13]; HT29, 24 h",does not upregulate PUMA
same,upregulation of PUMA,"[13]; TOV-112D, 24 h",does not upregulate PUMA
same,upregulation of p21,"[14]; HCT116 (p53 wild-type), 24 h",significantly upregulates p21
same,upregulation of p21,"[14]; HCT116 p53-R175H, 24 h",mildly upregulates p21
same,upregulation of p21,"[14]; HCT116 p53–/–, 24 h",slightly upregulates p21
same,upregulation of p21,"[14]; HT29, 24 h",slightly upregulates p21
same,upregulation of p21,"[14]; TOV-112D, 24 h",mildly upregulates p21
COc1ccc(C2=N[C@@H](c3ccc(Cl)cc3)[C@@H](c3ccc(Cl)cc3)N2C(=O)N2CCNC(=O)C2)c(OC(C)C)c1 [Nutlin-3a],inhibition of viability,"[5]; p53 wild-type HCT116, 6.67 μM",selectively inhibits the viability
same,inhibitory activity,[8]; HT29 and TOV-112D,shows inhibitory activity
same,effect on viability,"[8]; p53-null and p53 R175H HCT116, 6.67 μM",no significant effects
same,upregulation of ATF4,[10],do not upregulate ATF4
same,wild-type p53 protein level,[11],stabilizes
same,endogenous mutant p53 R273H protein level,[11],no effects
same,endogenous mutant p53 R175H protein level,[11],no effects
same,exogenous mutant p53 R175H protein level,[11],no effects
same,upregulation of DR5,"[12]; five cell lines, 24 h",does not upregulate DR5
same,upregulation of PUMA,"[13]; HCT116 (p53 wild-type), 24 h",significantly upregulates
same,upregulation of p21,"[14]; HCT116 (p53 wild-type), 24 h",significantly upregulates
"C=CC1=C(C)c2cc3[n-]c(cc4nc(cc5[n-]c(cc1n2)c(C)c5C=C)C(C)=C4CCC(=O)O)c(CCC(=O)O)c3C.[Zn+2] [ZnPP, Zinc protoporphyrin]",effect on PG3- or ONC201-induced upregulation of ATF4,[1],do not attenuate or block

# — PMC11407758, “Integrated stress response (ISR) activation and apoptosis through HRI kinase by PG3 and other p53 pathway-restoring cancer therapeutics” (Oncotarget, 2024)
